In patent US12577239B2, “Sulfilimines or sulfoximines containing fungicidal heterocyclic compounds” (PI INDUSTRIES LTD., priority 2019, dated 2026):

System: Phytophthora infestans
Test: microbe, parasite or virus in culture
Format: cell-based
Conditions: 168 h, read-out: control compared to the untreated check

Compound	inhibition of growth at 30 ppm [%]
CS(=N)(=O)c1cccc(Cl)c1C1CC(c2csc(C3CCN(C(=O)Cn4cc(Cl)cc(C(F)(F)F)c4=O)CC3)n2)=NO1 (centres unmarked) [Compound 1, 5-chloro-1-(2-(4-(4-(5-(2-chloro-6-(S-methylsulfonimidoyl)phenyl)-4,5-dihydroisoxazol-3-yl)thiazol-2-yl)piperidin-1-yl)-2-oxoethyl)-3-(trifluoromethyl)pyridin-2(1H)-one]	≥ 70
CS(=N)(=O)c1cccc(Cl)c1C1CC(c2csc(C3CCN(C(=O)Cn4cc(C(F)(F)F)cc(Cl)c4=O)CC3)n2)=NO1 (centres unmarked) [Compound 2, 3-chloro-1-(2-(4-(4-(5-(2-chloro-6-(S-methylsulfonimidoyl)phenyl)-4,5-dihydroisoxazol-3-yl)thiazol-2-yl)piperidin-1-yl)-2-oxoethyl)-5-(trifluoromethyl)pyridin-2(1H)-one]	≥ 70
CS(=N)(=O)c1cccc(Cl)c1C1CC(c2csc(C3CCN(C(=O)Cn4nc(C(F)F)cc4C(F)F)CC3)n2)=NO1 (centres unmarked) [Compound 3, (2-(3-(2-(1-(2-(3,5-bis (difluoromethyl)-1H-pyrazol-1-yl)acetyl)piperidin-4-yl)thiazol-4-yl)-4,5-dihydroisoxazol-5-yl)-3-chlorophenyl) (imino) (methyl)-λ^6-sulfanone]	≥ 70
Cc1cc(C(F)(F)F)nn1CC(=O)N1CCC(c2nc(C3=NOC(c4c(F)cccc4N=S(C)(C)=O)C3)cs2)CC1 (centres unmarked) [Compound 6, ((3-fluoro-2-(3-(2-(1-(2-(5-methyl-3-(trifluoromethyl)-1H-pyrazol-1-yl)acetyl)piperidin-4-yl)thiazol-4-yl)-4,5-dihydroisoxazol-5-yl)phenyl)imino)dimethyl-λ^6-sulfanone]	≥ 70
CC(C)S(=N)(=O)c1cccc(Cl)c1C1CC(c2csc(C3CCN(C(=O)Cn4ccnc(C(F)(F)F)c4=O)CC3)n2)=NO1 (centres unmarked) [Compound 64]	≥ 70
CS(=N)(=O)c1cccc(C#N)c1C1CC(c2csc(C3CCN(C(=O)Cn4nc(C(F)F)cc4C(F)F)CC3)n2)=NO1 (centres unmarked) [Compound 164]	≥ 70
CS(=N)(=O)c1cccc(Cl)c1C1CC(c2csc(C3CCN(C(=O)Cn4cc(C(F)(F)F)ccc4=O)CC3)n2)=NO1 (centres unmarked) [Compound 169, 1-(2-(4-(4-(5-(2-chloro-6-(S-methylsulfonimidoyl)phenyl)-4,5-dihydroisoxazol-3-yl)thiazol-2-yl)piperidin-1-yl)-2-oxoethyl)-5-(trifluoromethyl)pyridin-2(1H)-one]	≥ 70
CN=S(C)(=O)c1cccc(Cl)c1C1CC(c2csc(C3CCN(C(=O)Cn4c(C)ccc(C(F)(F)F)c4=O)CC3)n2)=NO1 (centres unmarked) [Compound 174]	≥ 70
